What was measured:
[1] = xn = mol fraction of the nth substance listed; conditions: 298.15 K, 101 kPa, Liquid, Vibrating tube method
[2] = excess molar enthalpy (molar enthalpy of mixing); xn = mol fraction of the nth substance listed; conditions: 298.15 K, 101 kPa, Liquid

BrCCBr [1,2-dibromoethane] + CCCC(=O)OCC
Conditions | excess molar enthalpy [kcal/mol] | mass density [kg/m3]
[1], x2 = 0.08 | – | 2015.53
[1], x2 = 0.1235 | – | 1937.68
[1], x2 = 0.1689 | – | 1859.7
[1], x2 = 0.2131 | – | 1787.18
[1], x2 = 0.311 | – | 1637.22
[1], x2 = 0.3652 | – | 1559.91
[1], x2 = 0.424 | – | 1480.28
[1], x2 = 0.4807 | – | 1407.25
[1], x2 = 0.5444 | – | 1329.31
[1], x2 = 0.6754 | – | 1181.51
[1], x2 = 0.7549 | – | 1098.99
[1], x2 = 0.8227 | – | 1032.55
[1], x2 = 0.9026 | – | 958.45
[2], x2 = 0.0385 | 0.005 | –
[2], x2 = 0.0839 | 0.00753 | –
[2], x2 = 0.1324 | 0.00841 | –
[2], x2 = 0.1841 | 0.00779 | –
[2], x2 = 0.2355 | 0.00421 | –
[2], x2 = 0.2844 | -0.0011 | –
[2], x2 = 0.3336 | -0.00743 | –
[2], x2 = 0.3803 | -0.0131 | –
[2], x2 = 0.4245 | -0.0174 | –
[2], x2 = 0.4313 | -0.0181 | –
[2], x2 = 0.458 | -0.0205 | –
[2], x2 = 0.5024 | -0.0217 | –
[2], x2 = 0.5565 | -0.023 | –
[2], x2 = 0.6234 | -0.0229 | –
[2], x2 = 0.6941 | -0.0215 | –
[2], x2 = 0.7723 | -0.0185 | –
[2], x2 = 0.851 | -0.0141 | –
[2], x2 = 0.9264 | -0.00803 | –

BrCCBr [1,2-dibromoethane] + CCOC(=O)CC
Conditions | excess molar enthalpy [kcal/mol] | mass density [kg/m3]
[1], x2 = 0.0479 | – | 2086.59
[1], x2 = 0.0959 | – | 2007.68
[1], x2 = 0.1904 | – | 1859.96
[1], x2 = 0.2852 | – | 1720.53
[1], x2 = 0.3448 | – | 1636.9
[1], x2 = 0.4532 | – | 1492.57
[1], x2 = 0.5156 | – | 1413.6
[1], x2 = 0.5836 | – | 1330.59
[1], x2 = 0.6423 | – | 1261.58
[1], x2 = 0.7044 | – | 1190.86
[1], x2 = 0.7717 | – | 1116.79
[1], x2 = 0.8366 | – | 1047.86
[1], x2 = 0.9155 | – | 967.12
[2], x2 = 0.0408 | 0.00294 | –
[2], x2 = 0.0876 | 0.00552 | –
[2], x2 = 0.1399 | 0.00636 | –
[2], x2 = 0.1925 | 0.00495 | –
[2], x2 = 0.2463 | 0.00124 | –
[2], x2 = 0.3001 | -0.00495 | –
[2], x2 = 0.3515 | -0.0114 | –
[2], x2 = 0.3996 | -0.0181 | –
[2], x2 = 0.4154 | -0.0205 | –
[2], x2 = 0.4446 | -0.0241 | –
[2], x2 = 0.4644 | -0.0276 | –
[2], x2 = 0.486 | -0.0301 | –
[2], x2 = 0.522 | -0.0345 | –
[2], x2 = 0.5865 | -0.0383 | –
[2], x2 = 0.6595 | -0.0372 | –
[2], x2 = 0.7397 | -0.0331 | –
[2], x2 = 0.827 | -0.0259 | –
[2], x2 = 0.9159 | -0.0163 | –

BrCCBr [1,2-dibromoethane] + CCOC(C)=O
Conditions | excess molar enthalpy [kcal/mol] | mass density [kg/m3]
[1], x2 = 0.0526 | – | 2091.79
[1], x2 = 0.1032 | – | 2019.48
[1], x2 = 0.1562 | – | 1945.11
[1], x2 = 0.2107 | – | 1869.55
[1], x2 = 0.2686 | – | 1790.65
[1], x2 = 0.4371 | – | 1568.65
[1], x2 = 0.4987 | – | 1490.07
[1], x2 = 0.6182 | – | 1341.18
[1], x2 = 0.6799 | – | 1266.02
[1], x2 = 0.7399 | – | 1194.16
[1], x2 = 0.8065 | – | 1115.57
[1], x2 = 0.8705 | – | 1041.22
[1], x2 = 0.9341 | – | 968.46
[2], x2 = 0.0529 | 0.00619 | –
[2], x2 = 0.1142 | 0.00951 | –
[2], x2 = 0.1754 | 0.0111 | –
[2], x2 = 0.2376 | 0.0103 | –
[2], x2 = 0.2976 | 0.00906 | –
[2], x2 = 0.3548 | 0.00643 | –
[2], x2 = 0.4086 | 0.0028 | –
[2], x2 = 0.4579 | -0.00112 | –
[2], x2 = 0.5045 | -0.00509 | –
[2], x2 = 0.536 | -0.00822 | –
[2], x2 = 0.5453 | -0.00877 | –
[2], x2 = 0.5935 | -0.0133 | –
[2], x2 = 0.6556 | -0.0167 | –
[2], x2 = 0.7113 | -0.0176 | –
[2], x2 = 0.7914 | -0.0161 | –
[2], x2 = 0.8635 | -0.0119 | –
[2], x2 = 0.9367 | -0.00602 | –
